The source of these data is US5116858A, “4-imidazoline derivatives” (Mitsubishi Kasei Corporation, priority 1989, dated 1992).

In experiment [1] the test system is peroxidized lipid in rat brain homogenate. As to the kind of experiment: Lipoperoxidation inhibitory activity in brain homogenate (TBA method). Particulars: 30 minutes at 37° C., final conc. 0.3-100 μM, read-out: Anti-lipoperoxidation Activity IC50. Type of experiment: biochemical, Wistar male rats. On the procedure: Brain homogenate was prepared using Wistar male rats in accordance with the following procedure. […] A polyethylene tube was inserted into the aorta through the left ventricle, and fixed. Brain perfusion was conducted using ice-cooled 50 mM phosphate buffered saline (PBS), pH 7.4, through the tube, and whole brain was extracted. After removal of the cerebellum, the cerebrum was weighed while wet and homogenated by a Teflon homogenizer under ice-cooling, after addition of nine-fold by weight of PBS. The resultant homogenate was centrifuged at 4° C. (2200 r.p.m., 10 minutes), and an aliquot of the supernatant (0.3 ml) was placed in a light-resistant test tube with ground stopper and used for the following test.
To the brain homogenate obtained above were added PBS (0.6 ml) and an ethanol solution (10 μl) containing a predetermined amount of a test compound. Thus, each of the ethanol solutions was prepared so that the final concentration of the compound was 0.3-100 μM. The mixture was allowed to warm for 30 minutes at 37° C. (external bath temperature). […] (2600 r.p.m., 10 minutes). The resultant supernatant was used in the following quantitative analysis.
The aqueous mixture was heated in a boiling-water bath for 60 minutes and cooled rapidly. Distilled water (1.0 ml) and a mixture of pyridine and butanol (1:15) (5.0 ml) were added to the cooled mixture, and the latter was shaken for 30 seconds and centrifuged (3000 r.p.m., 10 minutes). The supernatant was used as a test sample for quantitative analysis of peroxidized lipid as mentioned below.

The test system of experiment [2] is mice. As to the kind of experiment: Passive avoidance response test (memory-improving activity, cycloheximide-treated mice). Type of experiment: in vivo. Particulars: Mus musculus; oral, 15 mice per group, cycloheximide 120 mg/kg s.c., latent time; read-out: Memory-Improving Activity, Minimum Effective Dose. As to the method:
Passive avoidance response test was conducted in mice (15 animals per group) using light-dark differential apparatus of step-down type. The apparatus consisted of a dark room made of black and rigid vinylidene chloride resin [30 cm (depth)×30 cm (width)×31 cm (height)] and a light room, as an adjacent room, made of transparent rigid vinylidene chloride resin. The floor of the light room was set 2 cm higher than the grid surface of the dark room (step down type), and there was a guillotine door between the rooms. The animals were placed in the apparatus and acclimatized before test, and latent time for moving from the light room to the dark room was determined.
The acclimatized animals subcutaneously received 120 mg/kg of cycloheximide (Sigma) dissolved in physiological saline. After 30 minutes of the administration, the animals were placed in the light room. Immediatly after the movement of the animals to the dark room, electric current was applied on the grid (0.5 mA, 3 seconds), which gave the animals "aquired behavior". After 24 hours of the establishment of the aquired behavior, a test compound suspended in 1% tragacanth was administered orally to the animals, which were then returned to the light room. Control animals received only 1% tragacanth. The latent time until an individual animal started to move to the dark room was determined.

For orientation: IC50 means the concentration that inhibits the measured activity by half. With `COc1ccc(-c2c(C)[nH]c(=O)n2C)cc1` [Compound A, reference compound], the concentration for half-maximal inhibition (IC50) in experiment [1] was determined as 147 µM.
Regarding `CCCCn1c(-c2ccccc2)c(C)[nH]c1=O` [Compound B, reference compound], the half-inhibitory concentration (IC50) in experiment [1] is above 100 µM.
On to `CCCCCCc1ccc(-c2c(C)[nH]c(=O)n2C)cc1` [Compound No. 1, 1,4-Dimethyl-5-(4'-n-hexylphenyl)-4-imidazolin-2-one], for which the IC50 in experiment [1] was 9 µM. For the same compound, the minimal effective dose in experiment [2] was 0.3 mg/kg.
As to `CCCc1ccc(-c2c(C)[nH]c(=O)n2C)cc1` [Compound No. 7], in experiment [1], the IC50 turned out to be 21.5 µM.
In the case of `Cc1[nH]c(=O)n(C)c1-c1ccc(C(C)(C)C)cc1` [Compound No. 9], the 50% inhibitory concentration (IC50) in experiment [1] worked out at 8.4 µM.
As for `CCCCCCCCCCc1ccc(-c2c(C)[nH]c(=O)n2C)cc1` [Compound No. 12], the 50% inhibitory concentration (IC50) in experiment [1] is 7.9 µM. Also, the minimal effective dose in experiment [2] is 0.3 mg/kg.
In the case of `CCCCCCCCCCCCc1ccc(-c2c(C)[nH]c(=O)n2C)cc1` [Compound No. 13], the IC50 in experiment [1] amounted to 13 µM. For the same compound, the minimal effective dose in experiment [2] worked out at 3 mg/kg.
Turning to `Cc1[nH]c(=O)n(C)c1-c1ccc(OCCC(C)C)cc1` [Compound No. 20], the IC50 in experiment [1] is 6.6 µM.
Same read-out and setting: the value for `CCCCCCOc1ccc(-c2c(C)[nH]c(=O)n2C)cc1` [Compound No. 21] was 7.3 µM.
Take `Cc1[nH]c(=O)n(C(C)C)c1-c1ccc(C2CCCCC2)cc1` [Compound No. 77, 5-(4'-Cyclohexylphenyl)-1-isopropyl-4-methyl-4-imidazolin-2-one]: the IC50 in experiment [1] was 8.3 µM. In experiment [2], the minimal effective dose was determined as 0.1 mg/kg.
As for `Cc1[nH]c(=O)n(C2CCCCC2)c1-c1ccc(-c2ccccc2)cc1` [Compound No. 93, 1-Cyclohexyl-5-(4-biphenyl)-4-methyl-4-imidazolin-2-one], in experiment [1], the IC50 amounted to 10.9 µM. The minimal effective dose in experiment [2] is 0.1 mg/kg.
Turning to `CCCCCCCCCCOc1ccc(-c2c(C)[nH]c(=O)n2C2CCCCC2)cc1` [Compound No. 122, 1-cyclohexyl-5-(4'-decyloxyphenyl)-4-methyl-4-imidazolin-2-one], the half-maximal inhibitory concentration (IC50) in experiment [1] was found to be 10.5 µM. Also, in experiment [2], the minimal effective dose was found to be 0.1 mg/kg.
For the compound `Cc1[nH]c(=O)n(C2CCCCC2)c1-c1ccc(Oc2ccccc2)cc1` [Compound No. 123, 1-Cyclohexyl-4-methyl-5-(4'-phenoxyphenyl)-4-imidazolin-2-one], the IC50 in experiment [1] is 7.9 µM. Besides, the minimal effective dose in experiment [2] came to 0.1 mg/kg.
Regarding `Cc1[nH]c(=O)n(C2CCCCC2)c1-c1ccc(OCc2ccccc2)cc1` [Compound No. 124, 5-(4'-Benzyloxyphenyl)-1-cyclohexyl-4-methyl-4-imidazolin-2-one], the IC50 in experiment [1] was determined as 8.3 µM. Moreover, in experiment [2], the minimal effective dose turned out to be 0.1 mg/kg.
Turning to `COC1=C(OC)C(=O)C(CCCCCCCCCCO)=C(C)C1=O` [Idebenone, reference compound], in experiment [1], the IC50 was 17.2 µM.
Regarding `CCCCc1ccc(-c2c(CC)[nH]c(=O)n2C)cc1` [compound 3], the half-maximal inhibitory concentration (IC50) in experiment [1] stood at 13.9 µM.
Consider `Cc1[nH]c(=O)n(C)c1-c1ccc(CC(C)C)cc1` [compound 5], for which the IC50 in experiment [1] came out at 7.8 µM. In experiment [2], the minimal effective dose came out at 30 mg/kg.
For `CCCCCc1ccc(-c2c(C)[nH]c(=O)n2C)cc1` [compound 6], the IC50 in experiment [1] stood at 5.9 µM.
As for `CCCCCCCc1ccc(-c2c(C)[nH]c(=O)n2C)cc1` [compound 10], the IC50 in experiment [1] was found to be 8.4 µM. Further, the minimal effective dose in experiment [2] amounted to 30 mg/kg.
Consider `CCCCCCCCc1ccc(-c2c(C)[nH]c(=O)n2C)cc1` [compound 11], for which, in experiment [1], the IC50 came to 19.4 µM. Besides, in experiment [2], the minimal effective dose is 30 mg/kg.
Consider `CCCCCCCCCCCCCCc1ccc(-c2c(C)[nH]c(=O)n2C)cc1` [compound 14], for which, in experiment [1], the concentration for half-maximal inhibition (IC50) came to 43.8 µM. Also, in experiment [2], the minimal effective dose amounted to 30 mg/kg.
With `Cc1[nH]c(=O)n(C)c1-c1ccc(OC(C)C)cc1` [compound 17], the IC50 in experiment [1] turned out to be 20.4 µM.
As for `CCCCOc1ccc(-c2c(C)[nH]c(=O)n2C)cc1` [compound 18], the IC50 in experiment [1] stood at 5.1 µM. Besides, the minimal effective dose in experiment [2] amounted to 0.3 mg/kg.
As to `CCCCCOc1ccc(-c2c(C)[nH]c(=O)n2C)cc1` [compound 19], in experiment [1], the IC50 came to 4.5 µM.
Turning to `CCCCCCCOc1ccc(-c2c(C)[nH]c(=O)n2C)cc1` [compound 22], in experiment [1], the IC50 amounted to 5.7 µM.
Turning to `CCCCCCCCOc1ccc(-c2c(C)[nH]c(=O)n2C)cc1` [compound 23], the 50% inhibitory concentration (IC50) in experiment [1] worked out at 4 µM. Further, in experiment [2], the minimal effective dose was 30 mg/kg.
Consider `CCCCCCCCCOc1ccc(-c2c(C)[nH]c(=O)n2C)cc1` [compound 24], for which, in experiment [1], the IC50 was determined as 4.8 µM.
Turning to `CCCCCCCCCCOc1ccc(-c2c(C)[nH]c(=O)n2C)cc1` [compound 25], in experiment [1], the concentration for half-maximal inhibition (IC50) came to 6.9 µM. In experiment [2], the minimal effective dose was 0.1 mg/kg.
Turning to `CCCCCCCCCCCCOc1ccc(-c2c(C)[nH]c(=O)n2C)cc1` [compound 26], the IC50 in experiment [1] worked out at 9.7 µM. The minimal effective dose in experiment [2] was 0.1 mg/kg.
Take `CCCCCCCCCCCCCCCCCCOc1ccc(-c2c(C)[nH]c(=O)n2C)cc1` [compound 27]: in experiment [2], the minimal effective dose turned out to be 0.1 mg/kg.
Take `Cc1[nH]c(=O)n(C)c1-c1ccc(Oc2ccccc2)cc1` [compound 28]: the IC50 in experiment [1] is 8.1 µM.
Turning to `Cc1[nH]c(=O)n(C)c1-c1ccc(OCc2ccccc2)cc1` [compound 29], the IC50 in experiment [1] turned out to be 6.7 µM.
`Cc1[nH]c(=O)n(C)c1-c1ccc(OCCCc2ccccc2)cc1` [compound 30]: the half-inhibitory concentration (IC50) in experiment [1] was found to be 5.9 µM. Also, in experiment [2], the minimal effective dose came to 30 mg/kg.
`CSc1ccc(-c2c(C)[nH]c(=O)n2C)cc1` [compound 31]: the IC50 in experiment [1] was determined as 39.4 µM.
As to `CCCCSc1ccc(-c2c(C)[nH]c(=O)n2C)cc1` [compound 32], the IC50 in experiment [1] turned out to be 11.3 µM. In experiment [2], the minimal effective dose was determined as 3 mg/kg.
Take `CCCc1ccc(-c2c(C)[nH]c(=O)n2CC)cc1` [compound 54]: the half-inhibitory concentration (IC50) in experiment [1] came to 22.6 µM.
Regarding `CCCCc1ccc(-c2c(C)[nH]c(=O)n2CC)cc1` [compound 55], the 50% inhibitory concentration (IC50) in experiment [1] is 24.5 µM.
Turning to `CCCCc1ccc(-c2c(CC)[nH]c(=O)n2CC)cc1` [compound 56], the IC50 in experiment [1] stood at 13.9 µM.
Turning to `CCCCOc1ccc(-c2c(C)[nH]c(=O)n2CC)cc1` [compound 58], the IC50 in experiment [1] stood at 14.5 µM. Also, in experiment [2], the minimal effective dose was 0.3 mg/kg.
For `CCn1c(-c2ccc(OC(C)C)cc2)c(C)[nH]c1=O` [compound 60], in experiment [1], the IC50 was 39.1 µM.
Still for that read-out and setting: the result for `CCCCSc1ccc(-c2c(C)[nH]c(=O)n2CC)cc1` [compound 61] reads 12.9 µM.
Take `CCCCc1ccc(-c2c(C)[nH]c(=O)n2C(C)C)cc1` [compound 78]: the IC50 in experiment [1] turned out to be 10.7 µM. The minimal effective dose in experiment [2] turned out to be 0.3 mg/kg.
With `CCCCOc1ccccc1-c1c(C)[nH]c(=O)n1C(C)C` [compound 80], the IC50 in experiment [1] stood at 25.5 µM.
Take `Cc1[nH]c(=O)n(C2CCCCC2)c1-c1ccc(OCCC(C)C)cc1` [compound 94, 1-Cyclohexyl-5-(4'-isoamyloxyphenyl)-4-methyl-4-imidazolin-2-one]: the IC50 in experiment [1] is 7.2 µM.
Consider `CCCCCCCCc1ccc(-c2c(C)[nH]c(=O)n2C2CCCCC2)cc1` [compound 101], for which, in experiment [1], the IC50 came out at 10.3 µM.
With `CCCCCCCCCCc1ccc(-c2c(C)[nH]c(=O)n2C2CCCCC2)cc1` [compound 102], in experiment [1], the IC50 came to 27 µM.
Consider `CCCc1ccc(-c2c(C)[nH]c(=O)n2C2CCCCC2)cc1` [compound 106], for which the IC50 in experiment [1] was 13.9 µM. Also, the minimal effective dose in experiment [2] worked out at 30 mg/kg.
As for `Cc1[nH]c(=O)n(C2CCCCC2)c1-c1cccc(OC(C)C)c1` [compound 107], the IC50 in experiment [1] was determined as 10.4 µM.
In the case of `Cc1[nH]c(=O)n(C2CCCCC2)c1-c1ccccc1OC(C)C` [compound 108], the 50% inhibitory concentration (IC50) in experiment [1] is 21.5 µM.
As for `Cc1[nH]c(=O)n(C2CCCCC2)c1-c1ccc(OC(C)C)cc1` [compound 109], the concentration for half-maximal inhibition (IC50) in experiment [1] worked out at 13 µM. In addition, the minimal effective dose in experiment [2] was found to be 0.1 mg/kg.
Regarding `CCCCOc1cccc(-c2c(C)[nH]c(=O)n2C2CCCCC2)c1` [compound 110], in experiment [1], the IC50 is 9 µM.
Still for that read-out and setting: the result for `CCCCCOc1ccc(-c2c(C)[nH]c(=O)n2C2CCCCC2)cc1` [compound 112] reads 9.1 µM.
As to `Cc1[nH]c(=O)n(Cc2ccccc2)c1-c1ccc(C(C)(C)C)cc1` [compound 138], the IC50 in experiment [1] is 8.6 µM.
For `CCCCCCc1ccc(-c2c(C)[nH]c(=O)n2Cc2ccccc2)cc1` [compound 139], in experiment [1], the IC50 was 8.2 µM.
On the same count and under the same terms, the value for `Cc1[nH]c(=O)n(Cc2ccccc2)c1-c1ccc(C2CCCCC2)cc1` [compound 140] was 35.3 µM.
